Assay results published in ChEMBL document CHEMBL1201862, “PubChem BioAssay data set” (2004).
Activity calls are given as the source filed them.

Legend:
Cytochrome P450 1A2 = target: T1, Cytochrome P450 1A2 (Homo sapiens, UniProt P05177);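 also: PubChem cytochrome P450 panel assay, CYP1A2 panel member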
T1 sequence (P05177 whole entry): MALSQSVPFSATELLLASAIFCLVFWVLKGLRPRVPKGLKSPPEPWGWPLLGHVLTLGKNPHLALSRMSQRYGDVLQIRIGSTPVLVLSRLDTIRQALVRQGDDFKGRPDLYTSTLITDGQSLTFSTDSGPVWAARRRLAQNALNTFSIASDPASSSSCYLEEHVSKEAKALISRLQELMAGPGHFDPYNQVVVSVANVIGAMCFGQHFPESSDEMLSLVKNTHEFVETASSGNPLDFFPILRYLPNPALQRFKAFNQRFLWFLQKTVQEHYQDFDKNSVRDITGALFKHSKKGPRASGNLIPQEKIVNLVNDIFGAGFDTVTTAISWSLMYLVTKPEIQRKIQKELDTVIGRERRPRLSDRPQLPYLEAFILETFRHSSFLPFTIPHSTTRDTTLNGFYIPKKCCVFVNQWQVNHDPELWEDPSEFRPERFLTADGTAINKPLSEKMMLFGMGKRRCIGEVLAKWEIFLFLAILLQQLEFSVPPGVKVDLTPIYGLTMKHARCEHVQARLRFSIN

Cytochrome P450 2C19 = Cytochrome P450 2C19 (Homo sapiens, UniProt P33261); test: Cytochrome panel assay with activity outcomes. Panel member name: p450-cyp2c19 Compounds with AC50 equal or less than 10 uM are considered active; assay type: functional
[1] = NIH-3T3 fibroblast cytotoxicity, dose response, cytotoxicity control, cell-based, fluorescence, Alamar Blue, secondary assay (AID 2327); assay type: functional;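 also: NIH-3T3 mouse fibroblasts cultured with fluconazole at 8 µg/mL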
[2] = C. albicans growth with fluconazole, confirmation, fluorescence, retest (AID 2467); assay type: functional, cell-based
[3] = tested on: Streptococcus sp. 'group A'; test: growth inhibition of control SK(-) GAS strain, dose response, counter-screen for streptokinase expression inhibitor project, luminescence, kanamycin, BacTiterGlo, confirmation (AID 1900); assay type: functional, organism-based
Streptokinase A = target: T2, Streptokinase A (Streptococcus pyogenes serotype M1, UniProt P10520); test: S. pyogenes streptokinase expression inhibitors, potency, dose response, plasminogen activation absorbance, OD405 (AID 1914); assay type: functional, Streptococcus pyogenes M1 GAS;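 also: secreted streptokinase activity via plasminogen activation per viability signal from cell pellet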
T2 sequence (P10520 whole entry): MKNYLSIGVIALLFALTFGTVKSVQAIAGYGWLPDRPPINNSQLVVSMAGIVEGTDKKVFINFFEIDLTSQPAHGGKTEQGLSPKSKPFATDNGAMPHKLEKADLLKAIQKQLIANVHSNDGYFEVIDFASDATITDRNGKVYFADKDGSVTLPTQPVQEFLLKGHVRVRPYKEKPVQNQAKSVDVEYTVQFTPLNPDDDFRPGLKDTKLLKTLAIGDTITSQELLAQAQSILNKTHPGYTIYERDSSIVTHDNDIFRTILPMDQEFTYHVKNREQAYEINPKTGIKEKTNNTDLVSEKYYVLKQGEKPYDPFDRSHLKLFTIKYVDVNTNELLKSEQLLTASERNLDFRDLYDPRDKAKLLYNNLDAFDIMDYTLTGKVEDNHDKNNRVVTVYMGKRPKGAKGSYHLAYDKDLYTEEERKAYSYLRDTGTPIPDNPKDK

Streptococcus = test: Group A Streptococcus viability loss, dose response, counter-screen for streptokinase expression inhibitor project, luminescence, BacTiterGlo (AID 1915); assay type: functional, organism-based;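 also: potency for reduction of bacterial viability or growth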
INS1 = test: beta cell apoptosis inhibitors, cytokine rescue, dose response, luminescence, retest (AID 449756); assay type: functional, cell-based; conditions: Rattus norvegicus;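 also: cell death triggered by IL-1 beta plus TNF-alpha plus IFN-gamma mixture; protective hits raise ATP signal compared with cytokine alone wells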
Cytochrome P450 2C9 = Cytochrome P450 2C9 (Homo sapiens, UniProt P11712)
Cytochrome P450 3A4 = Cytochrome P450 3A4 (Homo sapiens, UniProt P08684);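 also: CYP3A4 tested as one member of a cytochrome P450 panel screen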
Cytochrome P450 2D6 = Cytochrome P450 2D6 (Homo sapiens, UniProt P10635);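 also: CYP2D6 member of a cytochrome P450 panel assay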
[4] = cytotoxicity toward NIH3T3 fibroblasts, dose response, counter-screen, cell-based, ATP luminescence, mouse fibroblasts (AID 2010); assay type: functional;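 also: cells exposed to compound for about 90 hours before reading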
[5] = inhibitors of intracellular T. cruzi replication, confirmation, NIH3T3 host cells, beta-gal luminescence (AID 2044); assay type: functional, cell-based;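 also: intracellular parasites grown in NIH/3T3 mouse fibroblasts as host cells; luminescent beta-galactosidase reporter signal from transgenic T. cruzi replicating inside host cells; inhibitors lower the luminescence signal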

Chain of Cytochrome P450 2C19 (P33261 whole entry): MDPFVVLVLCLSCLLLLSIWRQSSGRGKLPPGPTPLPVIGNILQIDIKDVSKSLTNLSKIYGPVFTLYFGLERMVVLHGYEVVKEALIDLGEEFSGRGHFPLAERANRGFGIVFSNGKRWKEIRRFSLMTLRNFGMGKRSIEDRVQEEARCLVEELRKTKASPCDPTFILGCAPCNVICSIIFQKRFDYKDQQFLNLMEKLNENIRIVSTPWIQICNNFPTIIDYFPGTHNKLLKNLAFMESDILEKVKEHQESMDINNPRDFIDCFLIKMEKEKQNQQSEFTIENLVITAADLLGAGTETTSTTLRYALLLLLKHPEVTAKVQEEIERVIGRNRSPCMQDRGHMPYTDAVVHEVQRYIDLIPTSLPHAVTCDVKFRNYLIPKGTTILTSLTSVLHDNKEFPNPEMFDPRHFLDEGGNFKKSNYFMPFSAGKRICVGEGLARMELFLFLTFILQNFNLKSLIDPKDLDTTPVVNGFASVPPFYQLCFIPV
Chain of Cytochrome P450 2C9 (P11712 whole entry): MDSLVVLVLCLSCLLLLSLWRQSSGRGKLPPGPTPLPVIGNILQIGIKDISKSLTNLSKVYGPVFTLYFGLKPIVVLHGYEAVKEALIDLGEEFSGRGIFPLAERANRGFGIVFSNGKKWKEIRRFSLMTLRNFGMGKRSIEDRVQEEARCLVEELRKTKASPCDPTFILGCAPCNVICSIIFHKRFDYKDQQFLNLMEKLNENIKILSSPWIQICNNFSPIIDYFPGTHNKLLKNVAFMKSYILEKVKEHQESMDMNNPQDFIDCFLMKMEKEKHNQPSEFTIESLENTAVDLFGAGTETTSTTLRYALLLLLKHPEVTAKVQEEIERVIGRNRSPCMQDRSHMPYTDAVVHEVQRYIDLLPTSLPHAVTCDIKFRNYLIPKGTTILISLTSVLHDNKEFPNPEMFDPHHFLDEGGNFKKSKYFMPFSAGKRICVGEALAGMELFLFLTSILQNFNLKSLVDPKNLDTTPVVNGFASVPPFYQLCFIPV
Chain of Cytochrome P450 2D6 (P10635 whole entry): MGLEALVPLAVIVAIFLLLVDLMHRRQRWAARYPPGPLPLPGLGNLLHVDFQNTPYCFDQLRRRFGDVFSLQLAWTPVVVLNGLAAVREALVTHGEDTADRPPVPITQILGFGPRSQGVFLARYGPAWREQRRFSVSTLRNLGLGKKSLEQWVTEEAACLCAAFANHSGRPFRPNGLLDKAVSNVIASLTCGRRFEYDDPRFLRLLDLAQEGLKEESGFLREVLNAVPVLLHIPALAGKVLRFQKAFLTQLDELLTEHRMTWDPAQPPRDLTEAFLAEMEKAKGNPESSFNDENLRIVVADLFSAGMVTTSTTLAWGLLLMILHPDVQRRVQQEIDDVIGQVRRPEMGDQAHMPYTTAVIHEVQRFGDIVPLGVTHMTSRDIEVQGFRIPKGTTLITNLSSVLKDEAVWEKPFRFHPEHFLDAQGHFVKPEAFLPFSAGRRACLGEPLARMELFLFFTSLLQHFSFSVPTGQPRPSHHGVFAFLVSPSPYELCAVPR
Chain of Cytochrome P450 3A4 (P08684 whole entry): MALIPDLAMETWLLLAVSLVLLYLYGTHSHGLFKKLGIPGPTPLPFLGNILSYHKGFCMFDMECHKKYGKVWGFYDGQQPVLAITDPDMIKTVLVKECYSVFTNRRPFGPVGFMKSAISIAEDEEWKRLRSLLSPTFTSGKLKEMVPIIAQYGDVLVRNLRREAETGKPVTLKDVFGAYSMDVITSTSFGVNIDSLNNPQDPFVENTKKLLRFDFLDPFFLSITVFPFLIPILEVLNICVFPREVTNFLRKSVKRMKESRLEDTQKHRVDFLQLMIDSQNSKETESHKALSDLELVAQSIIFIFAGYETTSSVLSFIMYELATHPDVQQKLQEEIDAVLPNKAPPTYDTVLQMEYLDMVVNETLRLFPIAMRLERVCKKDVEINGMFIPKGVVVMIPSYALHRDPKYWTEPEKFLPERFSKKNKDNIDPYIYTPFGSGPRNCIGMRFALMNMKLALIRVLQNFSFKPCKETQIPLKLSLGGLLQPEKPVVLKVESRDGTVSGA

In the case of `CC(C)(C)c1ccc(OCC(=O)NNC(=O)Cc2cccs2)cc1`, the AC50 (Cytochrome P450 1A2) was 28.2 µM (inconclusive) and the AC50 (Cytochrome P450 2C19; read-out: AC50) was 20 µM (inconclusive).

With `COc1ccc(C2N=C(Nc3ccc(C)cc3)Nc3nc(C)cc(=O)n32)cc1` (centres undefined) the EC50 [1] was > 160 µM (inactive) and the EC50 [2] was > 38 µM (not active).

For `CC1(C)Cc2c(cnn2-c2ccccc2)C(NC(=O)CCCN2CCCC2=O)C1` (centres undefined), the EC50 [3] was > 150 µM (not active), the EC50 (Streptokinase A) was > 150 µM (not active) and the EC50 (Streptococcus) was > 150 µM (not active).

For `O=C(Nc1cccc(F)c1)N1CCCCCC1`, the EC50 [3] was > 150 µM (not active), the EC50 (Streptokinase A) was > 150 µM (not active) and the EC50 (Streptococcus) was > 150 µM (not active).

In the case of `CCN(CC)S(=O)(=O)c1cccc(NC(=O)c2cc(-c3cccs3)nn2-c2ccccc2)c1`, the AC50 (INS1) was 10.3 µM (active).

In the case of `COc1ccc(OCCNS(=O)(=O)c2ccc3oc4ccccc4c3c2)cc1`, the AC50 (Cytochrome P450 2C9) was 2.51 µM (inconclusive).

For `Cc1ccc(NS(=O)(=O)c2ccc(C3CCCCC3)cc2)cc1`, the EC50 [3] was 4.32 µM (active), the EC50 (Streptokinase A) was 4.17 µM (active) and the EC50 (Streptococcus) was 7.04 µM (active).

For `COc1cccc(-c2ccc3ncnc(Nc4ccccc4)c3c2)c1`, the AC50 (Cytochrome P450 2C9) was 0.631 µM (inconclusive).

For `O=C(Oc1c(Cl)cc(Cl)c2cccnc12)N1CCOCC1`, the EC50 [1] was > 150 µM (inactive) and the EC50 [2] was > 38 µM (not active).

In the case of `Cc1c(C(=O)NCCC2=CCCCC2)cccc1[N+](=O)[O-]`, the AC50 (Cytochrome P450 1A2) was 15.8 µM (inconclusive), the AC50 (Cytochrome P450 3A4) was 14.1 µM (inconclusive) and the AC50 (Cytochrome P450 2D6) was 15.8 µM (inconclusive).

For `CC(=O)NCCNc1nc(-c2cccc(NS(C)(=O)=O)c2)nc2ccccc12`, the AC50 (Cytochrome P450 2C19; read-out: AC50) was 39.8 µM (inconclusive) and the AC50 (Cytochrome P450 2D6) was 10 µM (inconclusive).

For `COc1ccc(-c2nc(-c3ccncc3)no2)cc1OC`, the EC50 [1] was > 160 µM (inactive) and the EC50 [2] was 5.21 µM (active).

For `COCCn1c(=O)c(-c2ccc(Cl)cc2)nc2cnc(OC)nc21`, the AC50 (Cytochrome P450 2C9) was 39.8 µM (inconclusive) and the AC50 (Cytochrome P450 2D6) was 25.1 µM (inconclusive).

For `Cc1ccc(NC(=O)c2cccc(OCc3c(C)noc3C)c2)cc1S(=O)(=O)Nc1ccccc1Cl`, the EC50 (Streptokinase A) was > 150 µM (not active) and the EC50 (Streptococcus) was 57.1 µM (active).

In the case of `CN(Cc1ccco1)c1ncnc2ccc(-c3cccc(NS(C)(=O)=O)c3)cc12`, the AC50 (Cytochrome P450 2C9) was 0.794 µM (inconclusive).

For `O=C(O)CSCC(=O)N(Cc1ccccc1)c1nc(-c2ccccc2)c(-c2ccccc2)s1`, the EC50 [3] was 0.996 µM (active), the EC50 (Streptokinase A) was 2.81 µM (active) and the EC50 (Streptococcus) was 8.03 µM (active).

With `Cc1cccc(CSc2nc(N)c(C#N)c(-c3cccs3)c2C#N)c1` the EC50 [3] was 5.04 µM (active), the EC50 (Streptokinase A) was 4.93 µM (active) and the EC50 [4] was > 60 µM (inconclusive). The EC50 (Streptococcus) was > 150 µM (not active) and the EC50 [5] was 2.31 µM (active).

For `CCOC(=O)c1sc(NC(C)=O)nc1-c1ccccc1`, the AC50 (Cytochrome P450 2C19; read-out: AC50) was 10 µM (inconclusive).

In the case of `CC(C)c1ccc(COc2ccc(C(=O)N3CCOCC3)cc2)cc1`, the AC50 (INS1) was 9.42 µM (active).

In the case of `FC(F)(F)Oc1ccc(N=C(S)Nc2ccc(OC(F)(F)F)cc2)cc1`, the EC50 [3] was 15.8 µM (active), the EC50 (Streptokinase A) was > 150 µM (not active) and the EC50 (Streptococcus) was 22 µM (active).

With `CO[C@@H](C)[C@](O)(C(=O)OCC1=CCN2CC[C@@H](O)[C@H]12)C(C)C` the AC50 (Cytochrome P450 2C19) was “inconclusive” and the AC50 (Cytochrome P450 2D6) was 3.98 µM (inconclusive).

For `COc1ccc2[nH]cc(CCNc3ncnc4ccc(-c5c(C)noc5C)cc34)c2c1`, the AC50 (Cytochrome P450 2C9) was 0.501 µM (inconclusive).

For `Cn1ncc2c(Nc3ccc(Cl)c(Cl)c3)ncnc21`, the EC50 [3] was 7.9 µM (active), the EC50 (Streptokinase A) was > 150 µM (not active) and the EC50 (Streptococcus) was 16 µM (active).

For `CCN(CC)c1nc(N)c2c(N)nc3c(c2c1C#N)CC(c1ccccc1)O3` (centres undefined), the EC50 [1] was > 160 µM (inactive) and the EC50 [2] was > 38 µM (not active).

With `Cc1ccc(-c2csc(NNC(=O)c3ccccc3)n2)cc1` the EC50 [3] was 4.37 µM (active), the EC50 (Streptokinase A) was > 150 µM (not active) and the EC50 (Streptococcus) was > 150 µM (not active).
